Paper PMC11979685, “Synthesis of Derivatives of the Antibiotic Albicidin: The N‐Terminal Fragment as Key to Control Potency and Resistance Mediated by the Binding Protein AlbA” (Chemistry (Weinheim an Der Bergstrasse, Germany), 2025)
≈ marks a conversion by molar mass, not a printed value.

Tests used:
AlbAL = assay: Transcription activation (TA) reporter assay, pAlbA-ilux luminescence; format: cell-based, Klebsiella oxytoca; conditions: luminescence normalized to 2nd Gen albicidin 2
Protocol: Finally, we investigated if synthetic variations of building block A are able to evade the effects of the resistance protein AlbA. Therefore, we carried out a qualitative growth inhibition assay with derivatives 4–24 in presence of an equimolar amount of purified AlbAS. After incubation of the cultures overnight, the growth of the bacteria was evaluated. The ability of AlbAS to sufficiently sequester an albicidin derivative from the supernatant allowed E. coli cells to accumulate in a visible cell pellet. Second, we performed a quantitative transcription‐activation reporter assay[22] to assess transcriptional regulation by AlbAL. The promoter sequence pAlbA was inserted into a reporter vector that encodes the ilux luminescence cassette.[22] The luminescence signals elicited by ligand binding of synthetic variations to AlbAL was compared and normalized to the signal induced by 2nd Gen albicidin 2 and are hereby referred to as relative transcription activation (TA^%). The combination of both assays prompted us to categorize the experimental outcomes (Figure 4) in four groups:
Figure 4 Characterization of AlbA resistance against derivatives 2, 4–24. GIA: Qualitative growth inhibition assay against E. coli DSM 1116. (−): Derivative unable to inhibit the growth of E. coli in presence of AlbAS. (+): Derivative inhibits growth of E. coli in presence of AlbAS. […] For details see SI Figure 9. Transcription activation (TA) assay: luminescence elicited by 2nd Gen albicidin 2 from the TA assay was normalized to 100 % and the luminescence signal of tested derivatives provided: relative luminescence [%]=luminescence [derivative]/luminescence [2]×100 %. Green bars indicate low relative luminescence (<40 %) and red bars indicate high relative luminescence (>50 %). Error bars show the standard deviations of triplicate measurements. TEXT PRINTED IN THE PICTURE: 2: E. coli inhibition +AlbA: − | 4: E. coli inhibition +AlbA: + | 9: E. coli inhibition +AlbA: + | 11: E. coli inhibition +AlbA: + | 12: E. coli inhibition +AlbA: + | 13: E. coli inhibition +AlbA: ~ | 14: E. coli inhibition +AlbA: − | 16: E. coli inhibition +AlbA: − | 17: E. coli inhibition +AlbA: − | 18: E. coli inhibition +AlbA: − | 19: E. coli inhibition +AlbA: − | 20: E. coli inhibition +AlbA: + | 21: E. coli inhibition +AlbA: − | 22: E. coli inhibition +AlbA: − | 23: E. coli inhibition +AlbA: − | 24: E. coli inhibition +AlbA: − […]
Transcription activation (TA) assay
Transcription reporter assays were conducted as described previously.[4] In short, E. coli BL21(DE3) were transformed with pET15b-AlbA, an expression construct without His-tag, and pCS-pAlbA-ilux, a reporter vector containing the pAlbA promoter and the improved bacterial luciferase reporter gene cassette ILUX.[7] […] Sixty data points were measured on a TECAN Infinite 200 microplate reader, after orbital shaking with for 10 min, with an amplitude of 3 mm, and a wait time of one minute between each measurement. At each time point, the absorbance at 600 nm ([…] bandwidth and 25 flashes) and the luminescence (500 ms integration time, no attenuation) were measured. Each assay was measured in triplicate at 30°C. The luminescence data was normalized to the OD before the background signal (wells with no albicidin added) was subtracted and the mean + standard deviation of each measurement point was calculated. […]

E. coli DNA gyrase = E. coli DNA gyrase (Escherichia coli, UniProt P0AES4); design: method as in PMID 36741192; conditions: E. coli gyrase DNA cleavage; already published elsewhere; read-out: CC50 (concentration at half-maximum cleavage); cited from earlier work
E. coli DSM1116 = system: E. coli DSM1116; design: method as in PMID 36741192; conditions: already published elsewhere; cited from earlier work
E. coli = system: E. coli; design: method as in PMID 36741192; conditions: E. coli in presence of 50 % human serum; already published elsewhere; cited from earlier work
[1] = system: Salmonella typhimurium TA100; design: method as in PMID 36741192; conditions: already published elsewhere; cited from earlier work
E. coli BW25113 = system: E. coli BW25113; design: method as in PMID 36741192; conditions: already published elsewhere; cited from earlier work
[2] = system: Micrococcus luteus DSM 1790; design: method as in PMID 36741192; conditions: already published elsewhere; cited from earlier work
Bacillus subtilis DSM 10 = system: Bacillus subtilis DSM 10; design: method as in PMID 36741192; conditions: already published elsewhere; cited from earlier work
[3] = system: Mycobacterium phlei DSM 750; design: method as in PMID 36741192; conditions: already published elsewhere; cited from earlier work

Chain of E. coli DNA gyrase (P0AES4 whole entry): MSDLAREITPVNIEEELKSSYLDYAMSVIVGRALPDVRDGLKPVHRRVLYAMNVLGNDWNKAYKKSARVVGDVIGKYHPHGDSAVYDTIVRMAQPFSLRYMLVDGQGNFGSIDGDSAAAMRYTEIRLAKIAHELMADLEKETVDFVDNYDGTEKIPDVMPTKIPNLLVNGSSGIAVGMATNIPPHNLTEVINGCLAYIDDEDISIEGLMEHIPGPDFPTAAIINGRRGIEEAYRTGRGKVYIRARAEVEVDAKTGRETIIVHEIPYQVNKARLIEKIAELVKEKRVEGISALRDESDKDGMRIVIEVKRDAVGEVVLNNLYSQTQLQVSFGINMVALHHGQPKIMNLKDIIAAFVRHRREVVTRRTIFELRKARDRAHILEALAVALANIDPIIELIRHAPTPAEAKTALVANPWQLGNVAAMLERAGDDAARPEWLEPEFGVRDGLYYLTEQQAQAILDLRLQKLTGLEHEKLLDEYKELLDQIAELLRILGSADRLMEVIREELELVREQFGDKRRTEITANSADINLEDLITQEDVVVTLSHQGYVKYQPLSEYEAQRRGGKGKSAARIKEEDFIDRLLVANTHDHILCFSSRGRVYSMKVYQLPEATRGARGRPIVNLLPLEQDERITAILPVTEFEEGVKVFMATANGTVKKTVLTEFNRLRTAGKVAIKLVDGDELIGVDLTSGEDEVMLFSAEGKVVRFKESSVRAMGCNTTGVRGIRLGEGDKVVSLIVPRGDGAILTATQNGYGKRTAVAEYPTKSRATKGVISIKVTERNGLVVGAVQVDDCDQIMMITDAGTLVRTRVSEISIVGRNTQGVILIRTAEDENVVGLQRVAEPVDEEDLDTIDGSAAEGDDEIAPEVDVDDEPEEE

In the case of `CCn1cc(C(=O)Nc2ccc(C(=O)N[C@@H](Cc3c[nH]nn3)C(=O)Nc3ccc(C(=O)Nc4ccc(C(=O)Nc5ccc(C(=O)O)c(O)c5OC)c(O)c4OC)nc3)cc2)c(=O)c2ccc(C)nc21` [compound 18], the “relative transcription activation (TA%), in words” value (AlbAL) is reported as “low”.
In the case of `CCn1cc(C(=O)Nc2ccc(C(=O)N[C@@H](Cc3c[nH]nn3)C(=O)Nc3ccc(C(=O)Nc4ccc(C(=O)Nc5ccc(C(=O)O)c(O)c5OC)c(O)c4OC)nc3)cc2)c(=O)c2cc3c(cc21)OCO3` [compound 19], the “relative transcription activation (TA%), in words” value (AlbAL) is reported as “low”.
In the case of `COc1c(NC(=O)c2ccc(NC(=O)c3ccc(NC(=O)[C@H](Cc4c[nH]nn4)NC(=O)c4ccc(NC(=O)c5cc6cc(O)ccc6[nH]5)cc4)cn3)c(OC)c2O)ccc(C(=O)O)c1O` [compound 21], the “relative transcription activation (TA%), in words” value (AlbAL) is reported as “intermediate”.
For `COc1c(NC(=O)c2ccc(NC(=O)c3ccc(NC(=O)[C@H](Cc4c[nH]nn4)NC(=O)c4ccc(NC(=O)c5ccc6nc(C)ccc6c5)cc4)cn3)c(OC)c2O)ccc(C(=O)O)c1O` [compound 16], the CC50 (E. coli DNA gyrase) is given as 25 nM, the “MIC E. coli DSM1116” value (E. coli DSM1116) is given as 0.016 µg/mL (≈ 0.0179 µM) and the “MICEc 50%HS” value (E. coli) is given as 0.5 µg/mL. The “MIC S. typh.” value [1] was no more than 0.016 µg/mL, the “MIC E. coli BW25113” value (E. coli BW25113) was 0.016 µg/mL (≈ 0.0179 µM) and the “MIC M. luteus” value [2] was 0.063 µg/mL (≈ 0.0704 µM). For the same molecule, the “MIC B. sub.” value (Bacillus subtilis DSM 10) was 0.063 µg/mL (≈ 0.0704 µM) and the “MIC M. phlei” value [3] was 0.5 µg/mL (≈ 0.559 µM).
For `COc1c(NC(=O)c2ccc(NC(=O)c3ccc(NC(=O)[C@H](Cc4c[nH]nn4)NC(=O)c4ccc(NC(=O)c5ccc6nc[nH]c6c5)cc4)cn3)c(OC)c2O)ccc(C(=O)O)c1O` [compound 23], the “relative transcription activation (TA%), in words” value (AlbAL) was “low”.
In the case of `COc1c(NC(=O)c2ccc(NC(=O)c3ccc(NC(=O)[C@H](Cc4c[nH]nn4)NC(=O)c4ccc(NC(=O)c5ccc6nn[nH]c6c5)cc4)cn3)c(OC)c2O)ccc(C(=O)O)c1O` [compound 24], the “relative transcription activation (TA%), in words” value (AlbAL) is reported as “low”.
